# Test results as given in patent publication US20080300298A1, “Honokiol Derivates For the Treatment of Proliferative Disorders” (priority 2005, published 2008).
# Tests used:
# [1] = tested on: MCF-7 and MDA-MB-231 breast cancer cell lines; assay: MTT assay of drug combinations (additive model); type: cell-based
# Method: 3-(4,5-dimethylthiazol-2-yl)-2,5-diphenyltetrazolium bromide (MTT) proliferation assays: 3×10^3 cells/well were plated in 96-well plates, cultured in the appropriate culture media containing 10% FCS, and treated with either control vehicle or various concentrations of HNK, alone or with a secondary drug, as indicated. All secondary drugs were freshly diluted in growth media and immediately added to cells along with the HNK. After 24 hours of incubation at 37° C., 5% CO2, the cells were cultured for four hours with 10% MTT reagent (5 mg/ml; Sigma-Aldrich, St. Louis, Mo.). The medium was aspirated, and the cells were dissolved by dimethyl sulfoxide (DMSO). Absorbance of the formazan product was measured by an enzyme-linked immunosorbent assay reader (Macintosh).
# Model for drug interactions in vitro: The analysis of interaction between two drugs was conducted using the additive model (Xu D., et al. Cancer Lett. 2006 Jan. 7; [Electronic publication; ahead of print]; Sutherland, R. L., et al. Cancer Res. 1983 September; 43(9):3998-4006). The model predicts the effect of a combination to be equal to the product of the effect of its constituents. […] A ratio between the observed and the predicted viability by the additive model was calculated for all combinations. […]
# HUVEC = assay: direct toxicity against HUVEC (colorimetric assay); type: cell-based, human; conditions: 8 ug/ml
smiles,measurement,setting,value
"C=CCc1ccc(O)c(-c2ccc(O)c(CC=C)c2)c1 [HNK, Honokiol]",interaction of HNK and SAHA (additive model),"[1]; HNK 10-50 μM with SAHA 2 μM, 24 hours",synergistic effect
same,interaction of HNK and the other drugs tested (additive model),"[1]; with paclitaxel 250 nM, doxorubicin 300 nM, 4-HT 100 nM",Additive effect
same,viability of HUVEC cells,HUVEC,did not affect the viability of HUVEC cells
